We go through ten compounds from ChEMBL document CHEMBL1201862, “PubChem BioAssay data set” (2004).

What all share (test): NCI-60 cell line screen, 48 h
Test [1] relates to KM12.
Test [2] has as its system NCI-H460.
Test [3] concerns PC-3.
In test [4] the test system is SK-MEL-2.
Test [5] has as its system COLO 205.
Test [6] deals with HOP-92.
The subject of test [7] is EKVX.
Test [8] deals with NCI-H522.
Test [9] has as its system RPMI-8226.
Test [10] relates to OVCAR-3.
The subject of test [11] is SK-MEL-5.
Test [12] relates to OVCAR-4.
Test [13] has as its system UO-31.
Test [14] concerns SK-MEL-28.
Test [15] deals with 786-0.
Test [16] relates to SN12C.
The test system of test [17] is SW-620.
The test system of test [18] is MOLT-4.
Test [19] relates to BT-549.
Test [20] has as its system A549.

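Dose response: 5 concentrations. Exposure: 48 h. Format: 96-well plates. Endpoint: linear interpolation; highest concentration if not reached. GI50 = concentration required for 50% inhibition of growth.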 Activity calls are given as the source filed them. Rule as the data show it: active = GI50 up to about 1.1 µM and inactive = higher.

With `C=C1c2nc3ccccc3n2C=C(c2ccccc2)N1c1ccc(Cl)cc1`, the GI50 in [1] is 24 µM (inactive); in [2], 12.6 µM (inactive); in test [3] it was 25.7 µM (inactive); in test [4], 69.5 µM (inactive); in [5], > 64.3 µM (inactive); in [6], 26.8 µM (inactive). For the same compound, the GI50 is 13.4 µM (inactive) in [7]; 11.5 µM (inactive) in [8]; > 55.3 µM (inactive) in test [9]; 20 µM (inactive) in [10]; 15.3 µM (inactive) in test [11]; 5.74 µM (inactive) in [12]. The GI50 in [13] was 53.1 µM (inactive); in test [14], > 100 µM (inactive); in test [15], 5.83 µM (inactive); in [16] it was > 63.5 µM (inactive); in test [17], 26.5 µM (inactive); in test [18] it was > 100 µM (inactive). For the same compound, the figures for the GI50 in test [19] and in [20] were 23.4 µM (inactive) and 15.8 µM (inactive), respectively.
Turning to `CC(C)(C)OC(=O)N(CCCCNC(=O)C(F)(F)F)CCCNC(=O)C(F)(F)F`, the GI50 in test [1], in [2], in test [3], in test [4], in test [5] and in [6] was > 100 µM (inactive) each time. The GI50 in [7], in test [8], in [9], in test [10], in test [11] and in [12] was > 100 µM (inactive) in each case. Further, the GI50 in test [13], in test [14], in test [15], in [16], in [17] and in test [18] was > 100 µM (inactive) in each case. Further, the GI50 in test [19] and in [20] was > 100 µM (inactive) in each case.
In the case of `CC(CCC(=O)O)C(=O)O` (stereo not given), the GI50 in test [1], in test [2], in [3], in [4], in [5] and in [6] was > 100 µM (inactive) throughout. Also, the GI50 in test [7], in test [8], in test [9], in [10], in [11] and in test [12] was > 100 µM (inactive) throughout. In addition, the GI50 in test [13], in test [14], in [15], in test [16], in test [17] and in test [18] was > 100 µM (inactive) in each case. Also, the GI50 in [19] and in test [20] was > 100 µM (inactive) throughout.
For the compound `CC(=O)O[C@H]1C[C@@H](OC(C)=O)[C@@](C)(O)[C@@H]2[C@@H](OC(C)=O)[C@@]3(O)[C@H](/C=C(/CO)[C@H]4O[C@H]4[C@@H](OC(C)=O)[C@@]12C)OC(=O)[C@@H]3C`, the GI50 in [1] is 13.5 µM (inactive); in test [2] it was 8.13 µM (inactive); in test [3] it was 6.04 µM (inactive); in test [4], 6.89 µM (inactive); in test [5] it was 9.35 µM (inactive); in [6], 17.5 µM (inactive). For the same compound, the GI50 in [7] was > 25 µM (inactive); in test [8], 5.42 µM (inactive); in test [9] it was 9.86 µM (inactive); in test [10], 5.51 µM (inactive); in test [11], 9.25 µM (inactive); in test [12] it was > 25 µM (inactive). Further, the GI50 is 22.5 µM (inactive) in test [13]; 22.3 µM (inactive) in test [14]; 7.64 µM (inactive) in [15]; 12.2 µM (inactive) in [16]; 11.5 µM (inactive) in test [17]; 16.4 µM (inactive) in test [18]. Also, the results for the GI50 in [19] and in test [20] were > 25 µM (inactive) and 10.4 µM (inactive), respectively.
Take `C=CC(Br)(CBr)CCC(Br)C(C)(C)Cl` (stereo not given): the GI50 is 1.6 µM (inactive) in [1]; 2.21 µM (inactive) in test [2]; 3.27 µM (inactive) in test [3]; 8.73 µM (inactive) in [4]; 2.21 µM (inactive) in test [5]; 2.04 µM (inactive) in test [6]. Moreover, the GI50 was 8.18 µM (inactive) in [7]; 1.38 µM (inactive) in [8]; 0.579 µM (active) in test [9]; 2.23 µM (inactive) in [10]; 7.76 µM (inactive) in test [11]; 4.08 µM (inactive) in test [12]. For the same compound, the GI50 in test [13] is 1.65 µM (inactive); in test [14] it was 2.36 µM (inactive); in test [15], 2.35 µM (inactive); in test [16] it was 5.48 µM (inactive); in test [17], 2.05 µM (inactive); in test [18] it was 0.555 µM (active). In addition, the GI50 in [19] is 6.52 µM (inactive); in [20], 11.5 µM (inactive).
Take `Cc1cccc2sc(NC(=O)NS(=O)(=O)n3cnc4ccccc43)nc12`: the GI50 in test [1] is 30.4 µM (inactive); in test [2], 29.9 µM (inactive); in test [3] it was 28.6 µM (inactive); in test [4], 18.7 µM (inactive); in test [5], 27.8 µM (inactive); in [6], 15.3 µM (inactive). The GI50 is 1.67 µM (inactive) in test [7]; 21.6 µM (inactive) in test [8]; 21.5 µM (inactive) in test [9]; 22.3 µM (inactive) in test [10]; 21.7 µM (inactive) in [11]; 43.8 µM (inactive) in [12]. The GI50 is 22.2 µM (inactive) in test [13]; 35.9 µM (inactive) in test [14]; 33.8 µM (inactive) in test [15]; 25.9 µM (inactive) in test [16]; 28.4 µM (inactive) in test [17]; 26.5 µM (inactive) in test [18]. Further, the GI50 in test [19] was 23.3 µM (inactive); in test [20], 37.5 µM (inactive).
In the case of `C[C@]12Cc3cnc(-c4ccccc4)nc3C[C@@H]1CC[C@@H]1[C@@H]2CC[C@@]2(C)[C@H]1CC[C@]2(C)O`, the GI50 was 13.9 µM (inactive) in test [1]; 17.3 µM (inactive) in test [2]; 13.9 µM (inactive) in test [3]; 21 µM (inactive) in test [4]; 11.7 µM (inactive) in [5]; 22.8 µM (inactive) in [6]. For the same compound, the GI50 is 25.2 µM (inactive) in test [7]; 10.7 µM (inactive) in test [8]; 5.06 µM (inactive) in test [9]; 23.5 µM (inactive) in test [10]; 17.7 µM (inactive) in [11]; 14.4 µM (inactive) in test [12]. For the same compound, the GI50 in [13] was 3.03 µM (inactive); in [14] it was 18.6 µM (inactive); in test [15], 10.2 µM (inactive); in [16], 17.9 µM (inactive); in test [17] it was 21.2 µM (inactive); in [18] it was 34.3 µM (inactive). For the same compound, the GI50 in test [19] is 23 µM (inactive); in [20] it was 12.8 µM (inactive).
Take `O=[N+]([O-])c1cccc2nc3ccccc3c(NCCCN3CCOCC3)c12`: the GI50 was 0.0154 µM (active) in test [1]; < 0.01 µM (active) in [2]; 0.0219 µM (active) in test [3]; 0.0194 µM (active) in test [4]; < 0.01 µM (active) in test [5]; 0.0159 µM (active) in test [6]. Also, the GI50 in test [7] was < 0.0127 µM (active); in [8], 0.0168 µM (active); in test [9] it was 0.0103 µM (active); in test [10], 0.0184 µM (active); in [11], < 0.0114 µM (active); in [12], 0.0191 µM (active). Also, the GI50 in [13] was 0.0144 µM (active); in test [14], 0.034 µM (active); in [15], < 0.0106 µM (active); in test [16], < 0.0132 µM (active); in [17] it was < 0.01 µM (active); in [18], < 0.01 µM (active). The GI50 is 0.0273 µM (active) in test [19] and < 0.0121 µM (active) in [20].
`O=c1c(=O)c2c(Br)sc(Br)c2c1=O`: the GI50 in test [1] is > 100 µM (inactive); in [2], > 100 µM (inactive); in test [3], 19.2 µM (inactive); in [4] it was 20.8 µM (inactive); in test [5] it was 20.3 µM (inactive); in test [6] it was 17.9 µM (inactive). In addition, the GI50 in [7] was 20.1 µM (inactive); in test [8], 16.1 µM (inactive); in test [9], 21.6 µM (inactive); in test [10], 18.5 µM (inactive); in test [11], 16.9 µM (inactive); in test [12] it was 16.4 µM (inactive). In addition, the GI50 was 33 µM (inactive) in test [13]; 14.7 µM (inactive) in [14]; 22.6 µM (inactive) in test [15]; 17.3 µM (inactive) in test [16]; 15.8 µM (inactive) in test [17]; 24.3 µM (inactive) in [18]. The GI50 in test [19] is 19.4 µM (inactive); in [20], > 100 µM (inactive).
`C1CSCCCSCCCSCCCSCCCSC1`: the GI50 in test [1] is 25.4 µM (inactive); in [2] it was 14.4 µM (inactive); in test [3] it was 19 µM (inactive); in test [4], 20.7 µM (inactive); in test [5] it was 13.1 µM (inactive); in test [6], 24.1 µM (inactive). The GI50 in test [7] was 24.5 µM (inactive); in [8], 27.2 µM (inactive); in test [9], 5.32 µM (inactive); in [10] it was 28.6 µM (inactive); in test [11], 14.2 µM (inactive); in test [12], 22.5 µM (inactive). Moreover, the GI50 in [13] is 26.8 µM (inactive); in test [14] it was > 100 µM (inactive); in test [15], 40.2 µM (inactive); in [16], 37.2 µM (inactive); in test [17], 56.5 µM (inactive); in [18] it was 9.82 µM (inactive). Moreover, the GI50 was 33.8 µM (inactive) in test [19] and 28.5 µM (inactive) in test [20].
